The source of these data is PubChem BioAssay AID624439 (The Scripps Research Institute Molecular Screening Center, 2012).

In general, IC50 refers to the concentration at which inhibition is half-maximal.

The source made the active and inactive calls.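 Rule for the calls: active = compounds with an IC50 below 50 µM against the phosphatase; inactive = IC50 at 50 µM or above.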

In this experiment the target is Serine/threonine-protein phosphatase 5 (Homo sapiens) (UniProt P53041). Put plainly: PP5c inhibitor potency on phosphohistone, late-stage follow-up, orthogonal assay, biochemical, radiolabeled phosphohistone, dose response, round 5 (AID 624439). As to conditions: purified PP5c, 33P-phosphohistone dephosphorylation, scintillation.
Chain of Serine/threonine-protein phosphatase 5 (Homo sapiens) (P53041 whole entry, looked up): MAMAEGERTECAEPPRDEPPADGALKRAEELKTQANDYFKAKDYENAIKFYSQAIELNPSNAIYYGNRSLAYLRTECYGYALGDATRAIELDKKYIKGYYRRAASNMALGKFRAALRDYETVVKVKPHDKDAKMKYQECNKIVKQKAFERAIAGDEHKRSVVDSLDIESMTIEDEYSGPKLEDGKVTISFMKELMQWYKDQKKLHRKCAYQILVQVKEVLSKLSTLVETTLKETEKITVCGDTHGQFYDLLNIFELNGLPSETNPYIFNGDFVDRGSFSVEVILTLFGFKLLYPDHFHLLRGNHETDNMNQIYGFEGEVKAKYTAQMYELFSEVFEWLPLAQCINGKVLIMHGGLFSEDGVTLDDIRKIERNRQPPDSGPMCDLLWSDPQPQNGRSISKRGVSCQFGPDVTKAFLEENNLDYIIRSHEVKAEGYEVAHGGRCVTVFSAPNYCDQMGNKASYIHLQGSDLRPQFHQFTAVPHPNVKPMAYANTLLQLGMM
As for `CC(C)Oc1ccccc1-c1n[nH]nc1C(=O)O`, the IC50 was 17.1 µM.
As for `COc1ccc(-c2n[nH]nc2C(=O)O)cc1`, the entry is “inactive”.
As for `COc1ccccc1-c1n[nH]nc1C(=O)O`, the figure is 29.7 µM; as for `O=C(O)c1n[nH]nc1-c1cccc(F)c1`, “inactive”; as for `O=C(O)c1n[nH]nc1-c1ccccc1F`, 42.2 µM.
As for `O=C(O)c1n[nH]nc1-c1ccccc1O`, the figure is 31.4 µM; as for `O=C(O)c1n[nH]nc1-c1ccc(F)cc1`, “inactive”.
On to `COc1cccc(-c2n[nH]nc2C(=O)O)c1`, for which the IC50 is 49 µM.
